# Measurements reported in US20050119332A1, “Substituted thiophene compounds as modulators of protein tyrosine phosphatases (PTPases)” (priority 1998, published 2005).
# Target: T1, PTP1B (truncated form, first 321 amino acids) (Homo sapiens, UniProt P18031)
# T1 construct: a truncated form of PTP1B (corresponding to the first 321 amino acids); made in house; host or cells: E. coli
# T1 sequence (P18031 1-321): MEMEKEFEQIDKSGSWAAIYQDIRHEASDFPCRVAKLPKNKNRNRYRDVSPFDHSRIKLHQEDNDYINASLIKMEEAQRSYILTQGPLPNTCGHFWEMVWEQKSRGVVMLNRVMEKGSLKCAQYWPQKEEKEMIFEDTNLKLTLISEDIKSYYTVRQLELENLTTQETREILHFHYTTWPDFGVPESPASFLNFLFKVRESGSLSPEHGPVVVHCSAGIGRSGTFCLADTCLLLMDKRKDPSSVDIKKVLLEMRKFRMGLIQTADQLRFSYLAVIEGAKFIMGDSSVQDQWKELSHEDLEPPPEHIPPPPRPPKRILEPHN
# Experiment: Inhibition of truncated PTP1B, p-nitrophenyl phosphate substrate
# Type: biochemical
# Settings: p-nitrophenyl phosphate 0.16 to 10 mM; pH 5.5; 25° C., 60 minutes
# Protocol: The compounds are evaluated for biological activity with a truncated form of PTP1B (corresponding to the first 321 amino acids), which was expressed in E. coli and purified to apparent homogeneity using published procedures well-known to those skilled in the art. The enzyme reactions are carried out using standard conditions essentially as described by Burke et al. (Biochemistry 35; 15989-15996 (1996)). The assay conditions are as follows. Appropriate concentrations of the compounds of the invention are added to the reaction mixtures containing different concentrations of the substrate, p-nitrophenyl phosphate (range: 0.16 to 10 mM—final assay concentration). The buffer used was 100 mM sodium acetate pH 5.5, 50 mM sodium chloride, 0.1% (w/v) bovine serum albumin and 5 mM dithiothreitol (total volume […]). The reaction was started by addition of the enzyme and carried out in microtiter plates at 25° C. for 60 minutes. The reactions are stopped by addition of NaOH. The enzyme activity was determined by measurement of the absorbance at 405 nm with appropriate corrections for absorbance at 405 nm of the compounds and p-nitrophenyl phosphate. The data are analyzed using nonlinear regression fit to classical Michaelis Menten enzyme kinetic models. Inhibition is expressed as Ki values in μM.
row,SMILES,Ki [µM]
1,"Cc1[nH]cc(NC(=O)C(=O)O)c1C(=O)O [Example 1, 2-Methyl4-(oxalyl-amino)-1H-pyrrole-3-carboxylic acid]",200
2,"O=C(O)C(=O)Nc1scc(-c2ccccc2)c1C(=O)O [Example 4, 2-(Oxalyl-amino)-4-phenyl-thiophene-3-carboxylic acid]",100

# Tested on: not given
# Experiment: not given
# Settings: not given
row,SMILES,melting point
1,"O=C(O)C(=O)Nc1nn(Cc2ccccc2)cc1C(=O)O (hydrate or solvate) [Example 2, 1-Benzyl-3-(oxalyl-amino)-1H-pyrazole-4-carboxylic acid]",189 to 191 °C
2,"O=C(O)C(=O)Nc1scc(-c2ccccc2)c1C(=O)O (hydrate or solvate) [Example 4, 2-(Oxalyl-amino)-4-phenyl-thiophene-3-carboxylic acid]",196 to 198 °C
3,"O=C(O)C(=O)Nc1sc(Cc2ccccc2)cc1C(=O)O [Example 17, 2-(Oxalyl-amino)-5-(phenyl-methyl)thiophene-3-carboxylic acid]",230 to 231 °C
4,"O=C(O)C(=O)Nc1scc(C2CCCCC2)c1C(=O)O (hydrate or solvate) [Example 3, 4-Cyclohexyl-2-(oxalyl-amino)-thiophene-3-carboxylic acid]",> 250 °C
5,"O=C(O)C(=O)Nc1sc(-c2ccccc2)cc1C(=O)O [Example 19, 2-(Oxalyl-amino)-5-phenyl-thiophene-3-carboxylic acid]",238 to 240 °C
6,"O=C(CN1C(=O)c2ccccc2C1=O)NCc1cc(C(=O)O)c(NC(=O)C(=O)O)s1 [Example 41, 5-((2-(1,3-Dioxo-1.3-dihydro-isoindol-2-yl)-acetylamino)-methyl)-2-(oxalyl-amino)-thiophene-3-carboxylic acid]",243 to 244 °C (dec.)
7,"COc1ccc(Oc2ccc(-c3cc(NC(=O)C(=O)O)c(C(=O)O)s3)cc2)cc1 (hydrate or solvate) [Example 14, 5-(4-(4-Methoxy-phenoxy)-phenyl)-3-(oxalyl-amino)-thiophene-2-carboxylic acid]",215 °C (dec.)
